Data from ChEMBL document CHEMBL1131852, “Synthesis and antitumor activity of water-soluble duocarmycin B1 prodrugs” (Bioorg Med Chem Lett, 1999).

Experiments:
[1] = test system: Colon 26; test: In vivo antitumor activity against Colon 26 […] at dose 0.25 mg/kg; type: functional
[2] = test system: Colon 26; test: In vivo antitumor activity against Colon 26 […] at dose 0.5 mg/kg; type: functional
[3] = test system: HeLa; test: In vitro anticellular activity against HeLa S3 cells 1 hr after administration of the compound; type: functional, cell-based; details: Homo sapiens
[4] = test system: HeLa; test: In vitro anticellular activity against HeLa S3 cells 72 hr after administration of the compound; type: functional, cell-based; details: Homo sapiens
[5] = In vivo antitumor activity against Sarcoma 180 at dose 0.5 mg/kg; type: functional, Mus musculus
[6] = In vivo antitumor activity against Sarcoma 180 at dose 1.0 mg/kg; type: functional, Mus musculus
[7] = In vivo antitumor activity against Sarcoma 180 at dose 16.0 mg/kg; type: functional, Mus musculus
[8] = In vivo antitumor activity against Sarcoma 180 at dose 8.0 mg/kg; type: functional, Mus musculus
[9] = test system: Colon 26; test: In vivo antitumor activity against Colon 26 […] at dose 2.0 mg/kg; type: functional
[10] = test system: Colon 26; test: In vivo antitumor activity against Colon 26 […] at dose 1.0 mg/kg; type: functional
[11] = In vivo antitumor activity against Sarcoma 180 at dose 2.0 mg/kg; type: functional, Mus musculus

Compound	T/C [1]	T/C [2]	IC50 [3]	IC50 [4]	T/C [5]	T/C [6]	T/C [7]	T/C [8]	T/C [9]	T/C [10]	T/C [11]
COC(=O)[C@]1(C)Nc2c(OC(=O)N3CCN(C)CC3)cc3c(c2C1=O)[C@H](CBr)CN3C(=O)c1cc2cc(OC)c(OC)c(OC)c2[nH]1.Cl	0.37	0.13	170 nM	15 nM	0.26	0.13	–	–	–	–	–
COC(=O)[C@]1(C)Nc2c(O[C@@H]3OC(CO)[C@@H](O)C(O)[C@@H]3O)cc3c(c2C1=O)C[C@H](Br)CN3C(=O)c1cc2cc(OC)c(OC)c(OC)c2[nH]1 (stereo partly drawn)	–	–	2000 nM	830 nM	–	–	0.38	0.55	–	–	–
COC(=O)[C@]1(C)Nc2c(OP(=O)(O)O)cc3c(c2C1=O)C[C@H](Br)CN3C(=O)c1cc2cc(OC)c(OC)c(OC)c2[nH]1	–	–	40 nM	3.2 nM	0.57	0.29	–	–	–	–	–
COC(=O)[C@]1(C)Nc2c(O)cc3c(c2C1=O)C[C@H](Br)CN3C(=O)c1cc2cc(OC)c(OC)c(OC)c2[nH]1	–	–	0.13 nM	0.038 nM	0.22	–	–	–	–	–	–
COC(=O)[C@]1(C)Nc2c(OC(=O)N3CCN(C)CC3)cc3c(c2C1=O)C[C@H](Br)CN3C(=O)c1cc2cc(OC)c(OC)c(OC)c2[nH]1.Cl	–	–	2000 nM	70 nM	–	0.19	–	–	0.045	0.23	0.083
